Reference: patent US6984486B1, “Synthetic peptide of regulatory virus protein R (VPR) of human immunodeficiency virus type 1 (HIV-1) and the utilization thereof” (J. David Gladstone Institutes, priority 1999, dated 2006)

Legend:
[1] = system: human PBMC; settings: cultures of human PBMC infected with HIV-1NL4-3, 10 nM peptide
Excerpt: (§1) Cultures of PHA- and IL-2-activated PBMCs were infected with equal infectious doses of the following virus stocks: HIV-1NL4-3 (A, B, C), NL4-3(AD8) (D) as well as the vpu-deficient mutant NL(AD8)-UDEL1 (E), and the vpr-deficient mutant NL(AD8)deltaR (F).

[2] = system: HIV-1NL4-3; settings: cultures of human PBMC, 10 nM peptide
Excerpt: as §1

[3] = system: vpr deficient HIV-1 mutant viruses; settings: primary human monocytes/macrophages from different donors, vpr-deficient mutant NL(AD8)deltaR, two months
Excerpt: Parallel cultures of differentiated MDM isolated from three different donors were infected with equal infectious doses of purified virus stocks of the macrophage-tropic virus NL4-3(AD8) as well as the vpr-deficient mutant NL(AD8)deltaR. Virus production was followed over a time frame of two months and release of virus associated RT-activity was plotted against time.

[4] = compared with native viral Vpr

Substance: H-Met-Glu-Gln-Ala-Pro-Glu-Asp-Gln-Gly-Pro-Gln-Arg-Glu-Pro-Tyr-Asn-Gln-Trp-Thr-Leu-Glu-Leu-Leu-Glu-Glu-Leu-Lys-Ser-Glu-Ala-Val-Arg-His-Phe-Pro-Arg-Ile-Trp-Leu-His-Asn-Leu-Gly-Gln-His-Ile-Tyr-Glu-Thr-Tyr-Gly-Asp-Thr-Trp-Ala-Gly-Val-Glu-Ala-Ile-Ile-Arg-Ile-Leu-Gln-Gln-Leu-Leu-Phe-Ile-His-Phe-Arg-Ile-Gly-Cys-Arg-His-Ser-Arg-Ile-Gly-Val-Thr-Arg-Gln-Arg-Arg-Ala-Arg-Asn-Gly-Ala-Ser-Arg-Set-OH [sVpr^1-96]
- number of live cells [1]: increases the number of live cells
- virus replication (virus associated RT-activity released into cell culture supernatant) [2]: activates virus replication
- virus replication (release of virus associated RT-activity) [3]: activates virus replication
- biological activities [4]: comparable to native viral Vpr
